The compounds below were run against T1, α5β3γ2 GABAA receptors (Ltk cell membranes) (Homo sapiens, UniProt P18507+P31644) (assay: Binding activity of test compounds on GABAAR: inhibition of [3H]Ro15-1788 binding). Settings: not given.
T1 construct: membranes
Procedure, shortened: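 Membranes from dexamethasone-induced Ltk cells (α5 line: 0.5 μM, 1 day); binding with [3H]Ro15-1788 for 1 h at 4 °C in 50 mM KH2PO4, 1 mM EDTA, 0.2 M KCl, pH 7.4, 0.2 mg/ml α5 protein. Nonspecific binding defined by 10 μM diazepam; filtration, scintillation counting, triplicates.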

T1 sequence (P31644 32-462): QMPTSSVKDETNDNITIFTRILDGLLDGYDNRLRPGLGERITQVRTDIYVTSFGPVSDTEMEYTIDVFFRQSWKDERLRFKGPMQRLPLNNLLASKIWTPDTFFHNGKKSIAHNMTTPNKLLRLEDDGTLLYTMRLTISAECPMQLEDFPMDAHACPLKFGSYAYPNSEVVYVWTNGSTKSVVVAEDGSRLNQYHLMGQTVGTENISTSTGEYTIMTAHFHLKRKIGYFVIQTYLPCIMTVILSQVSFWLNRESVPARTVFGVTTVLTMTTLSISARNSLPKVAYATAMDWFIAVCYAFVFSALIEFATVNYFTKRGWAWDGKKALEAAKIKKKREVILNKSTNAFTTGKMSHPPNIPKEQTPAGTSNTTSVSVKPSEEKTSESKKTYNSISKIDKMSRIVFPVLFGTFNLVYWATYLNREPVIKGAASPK
T1 sequence (P28472 26-473 partner): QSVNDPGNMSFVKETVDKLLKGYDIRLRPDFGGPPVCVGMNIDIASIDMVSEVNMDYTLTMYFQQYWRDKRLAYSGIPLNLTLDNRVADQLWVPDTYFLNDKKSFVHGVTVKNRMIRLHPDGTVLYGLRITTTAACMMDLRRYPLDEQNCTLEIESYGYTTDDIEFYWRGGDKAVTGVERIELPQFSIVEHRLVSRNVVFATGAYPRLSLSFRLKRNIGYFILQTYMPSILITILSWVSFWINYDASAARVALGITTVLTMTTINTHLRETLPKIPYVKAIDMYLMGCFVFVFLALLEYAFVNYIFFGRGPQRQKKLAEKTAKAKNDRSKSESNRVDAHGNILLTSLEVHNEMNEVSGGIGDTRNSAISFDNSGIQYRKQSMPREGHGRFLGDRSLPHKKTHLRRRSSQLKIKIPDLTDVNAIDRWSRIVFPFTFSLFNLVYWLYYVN
T1 sequence (P18507 40-475): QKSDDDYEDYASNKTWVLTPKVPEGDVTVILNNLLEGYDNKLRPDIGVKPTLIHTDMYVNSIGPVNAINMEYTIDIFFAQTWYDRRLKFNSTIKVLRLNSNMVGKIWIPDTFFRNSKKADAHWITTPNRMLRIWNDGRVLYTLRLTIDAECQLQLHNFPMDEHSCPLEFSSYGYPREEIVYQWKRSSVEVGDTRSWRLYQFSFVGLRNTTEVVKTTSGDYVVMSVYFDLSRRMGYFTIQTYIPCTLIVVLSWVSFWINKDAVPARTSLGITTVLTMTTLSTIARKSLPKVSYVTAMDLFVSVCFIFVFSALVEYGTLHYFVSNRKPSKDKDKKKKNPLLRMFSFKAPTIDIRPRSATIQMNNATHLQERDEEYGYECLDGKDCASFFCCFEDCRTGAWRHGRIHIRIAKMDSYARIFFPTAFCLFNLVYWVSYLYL

Row | SMILES | Ki
1 | CC#Cc1nc(C)n2c1Cn1c(COC(C)C)nnc1-c1cc(Cl)ccc1-2 [Compound 306] | > 1000 nM
2 | CC(C)OCc1nnc2n1Cc1c(-c3cnco3)ncn1-c1ccc(Cl)cc1-2 [Compound 315] | > 1000 nM

Same assay, conditions: GABA α5 Binding Ki Values, inhibition of [3H]Ro15-1788 binding; reported as ranges

Row | SMILES | Ki
3 | COc1ccc2c(c1)-n1nnc(CN3CCCCC3)c1Cc1c(C#N)ncn1-2 [Compound 251] | > 1000 nM
4 | CCN(CC)Cc1nnn2c1Cc1c(C#N)ncn1-c1ccc(OC)cc1-2 [Compound 252] | > 1000 nM
5 | COc1ccc2c(c1)-n1nnc(CN3CCC(c4ccccc4)CC3)c1Cc1c(C#N)ncn1-2 [Compound 253] | > 1000 nM
6 | CCOCc1nnc2n1Cc1c(-c3nc(C(C)C)no3)ncn1-c1ccc(Cl)cc1-2 [Compound 254] | < 100 nM
7 | CCOCc1nnc2n1Cc1c(-c3nc(C)no3)ncn1-c1ccc(Cl)cc1-2 [Compound 255] | < 100 nM
8 | C#Cc1ncn2c1Cn1c(COC)nnc1-c1cc(Cl)ccc1-2 [Compound 256] | < 100 nM
9 | COc1ccc2c(c1)-n1nncc1Cc1c(-c3nc(C(C)C)no3)ncn1-2 [Compound 257] | < 100 nM
10 | COc1ccc2c(c1)-n1nncc1Cc1c(-c3nc(C)no3)ncn1-2 [Compound 258] | < 100 nM
11 | CCOCc1nnc2n1Cc1c(C3=NC(C)CO3)ncn1-c1ccc(Cl)cc1-2 (centres unmarked) [Compound 259] | < 100 nM
12 | CCOCc1nnc2n1Cc1c(C3=NC(c4ccccc4)CO3)ncn1-c1ccc(Cl)cc1-2 (centres unmarked) [Compound 260] | < 100 nM
13 | C#Cc1ncn2c1Cn1c(COCC)nnc1-c1cc(Cl)ccc1-2 [Compound 261] | < 100 nM
14 | COc1ccc2c(c1)-n1nnc(/C=C/c3ccccc3)c1Cc1c(C#N)ncn1-2 [Compound 262] | > 1000 nM
15 | COCc1nnc2n1Cc1c(C3=N[C@H](c4ccccc4)CO3)ncn1-c1ccc(Cl)cc1-2 [Compound 263] | < 100 nM
16 | COCc1nnc2n1Cc1c(C3=N[C@@H](c4ccccc4)CO3)ncn1-c1ccc(Cl)cc1-2 [Compound 264] | < 100 nM
17 | COCc1nnc2n1Cc1c(C3=N[C@@H](Cc4ccccc4)CO3)ncn1-c1ccc(Cl)cc1-2 [Compound 265] | 100 to 1000 nM
18 | COCc1nnc2n1Cc1c(C3=N[C@@H](CC4CCCCC4)CO3)ncn1-c1ccc(Cl)cc1-2 [Compound 266] | 100 to 1000 nM
19 | COCc1nnc2n1Cc1c(C3=N[C@H](CC(C)C)CO3)ncn1-c1ccc(Cl)cc1-2 [Compound 267] | 100 to 1000 nM
20 | CC(C)OCc1nnc2n1Cc1c(C3=N[C@H](c4ccccc4)CO3)ncn1-c1ccc(Cl)cc1-2 [Compound 268] | < 100 nM
21 | CC(C)OCc1nnc2n1Cc1c(C3=N[C@@H](c4ccccc4)CO3)ncn1-c1ccc(Cl)cc1-2 [Compound 270] | < 100 nM
22 | CCOCc1nnc2n1Cc1c(C3=N[C@H](c4ccccc4)CO3)ncn1-c1ccc(Cl)cc1-2 [Compound 271] | < 100 nM
23 | COc1ccc2c(c1)-n1nnc(-c3ccccc3)c1Cc1c(-c3nc(C(C)C)no3)ncn1-2 [Compound 272] | > 1000 nM
24 | COc1ccc2c(c1)-n1nnc(-c3ccccc3)c1Cc1c(-c3nc(C)no3)ncn1-2 [Compound 273] | 100 to 1000 nM
25 | COCc1nnc2n1Cc1c(COc3ccccn3)ncn1-c1ccc(Cl)cc1-2 [Compound 274] | 100 to 1000 nM
26 | CCOCc1nnc2n1Cc1c(C3=N[C@@H](c4ccccc4)CO3)ncn1-c1ccc(Cl)cc1-2 [Compound 275] | < 100 nM
27 | COc1ccc2c(c1)-n1nnc(C)c1Cc1c(-c3nc(C(C)C)no3)ncn1-2 [Compound 277] | < 100 nM

Row | SMILES | Ki
28 | CCOCc1nnc2n1Cc1c(-c3cc(C)no3)ncn1-c1ccc(Cl)cc1-2 [Compound 278] | < 100 nM
29 | CCOC(=O)c1ncn2c1Cc1c(-c3ccccc3Cl)nnn1-c1cc(OC)ccc1-2 [Compound 279] | > 1000 nM
30 | Cc1cc(-c2ncn3c2Cn2c(COC(C)C)nnc2-c2cc(Cl)ccc2-3)on1 [Compound 281] | 100 to 1000 nM
31 | COCc1nnc2n1Cc1c(C3=N[C@H](C)CO3)ncn1-c1ccc(Cl)cc1-2 [Compound 282] | < 100 nM
32 | COCc1nnc2n1Cc1c(C3=N[C@@H](C)CO3)ncn1-c1ccc(Cl)cc1-2 [Compound 283] | 100 to 1000 nM
33 | C#Cc1ccc2c(c1)-c1nnc(COC)n1Cc1c(C3=N[C@H](C(C)C)CO3)ncn1-2 [Compound 284] | 100 to 1000 nM
34 | COCc1nnc2n1Cc1c(C#Cc3ccccc3)ncn1-c1ccc(Cl)cc1-2 [Compound 285] | < 100 nM
35 | CC(C)OCc1nnc2n1Cc1c(C3=N[C@H](C)CO3)ncn1-c1ccc(Cl)cc1-2 [Compound 286] | 100 to 1000 nM
36 | CC(C)OCc1nnc2n1Cc1c(C3=N[C@@H](C)CO3)ncn1-c1ccc(Cl)cc1-2 [Compound 287] | 100 to 1000 nM
37 | C#Cc1ncn2c1Cn1c(COC(C)C)nnc1-c1cc(Cl)ccc1-2 [Compound 288] | < 100 nM
38 | COc1ccc2c(c1)-n1nncc1Cc1c(C3=N[C@@H](c4ccccc4)CO3)ncn1-2 [Compound 289] | < 100 nM
39 | COc1ccc2c(c1)-n1nncc1Cc1c(C3=N[C@H](C)CO3)ncn1-2 [Compound 291] | < 100 nM
40 | COc1ccc2c(c1)-n1nncc1Cc1c(C3=N[C@@H](C)CO3)ncn1-2 [Compound 292] | 100 to 1000 nM
41 | COCc1nnc2n1Cc1c(C#Cc3ccccc3C)ncn1-c1ccc(Cl)cc1-2 [Compound 293] | < 100 nM
42 | COCc1nnc2n1Cc1c(C3=NC[C@@H](C)O3)ncn1-c1ccc(Cl)cc1-2 [Compound 294] | < 100 nM
43 | COCc1nnc2n1Cc1c(C3=NC[C@H](C)O3)ncn1-c1ccc(Cl)cc1-2 [Compound 295] | < 100 nM
44 | COCc1nnc2n1Cc1c(-c3ncc(C)o3)ncn1-c1ccc(Cl)cc1-2 [Compound 296] | < 100 nM
45 | COCc1nnc2n1Cc1c(C3=NC(C)(C)CO3)ncn1-c1ccc(Cl)cc1-2 [Compound 297] | 100 to 1000 nM
46 | COCc1nnn2c1Cc1c(C3=N[C@@H](C)CO3)ncn1-c1ccc(OC)cc1-2 [Compound 298] | 100 to 1000 nM
47 | COCc1nnn2c1Cc1c(C3=N[C@@H](Cc4ccccc4)CO3)ncn1-c1ccc(Cl)cc1-2 [Compound 299] | 100 to 1000 nM
48 | COCc1nnn2c1Cc1c(C3=N[C@@H](C)CO3)ncn1-c1ccc(Cl)cc1-2 [Compound 300] | 100 to 1000 nM
49 | C#Cc1ccc2c(c1)-c1nnc(COC)n1Cc1c(-c3nc(-c4ccccc4)co3)ncn1-2 [Compound 302] | < 100 nM
50 | Cc1cc(-c2ncn3c2Cn2c(COCC(F)(F)F)nnc2-c2cc(Cl)ccc2-3)on1 [Compound 303] | 100 to 1000 nM
51 | FC(F)(F)COCc1nnc2n1Cc1c(C3=N[C@@H](c4ccccc4)CO3)ncn1-c1ccc(Cl)cc1-2 [Compound 304] | < 100 nM
52 | C#Cc1nc(C)n2c1Cn1c(COC(C)C)nnc1-c1cc(Cl)ccc1-2 [Compound 305] | 100 to 1000 nM

Row | SMILES | Ki
53 | CCOCc1nnc2n1Cc1c(C#Cc3ccccc3F)ncn1-c1ccc(Cl)cc1-2 [Compound 307] | < 100 nM
54 | CCOC(=O)c1ncn2c1Cn1c(COCC(F)(F)F)nnc1-c1cc(Cl)ccc1-2 [Compound 308] | < 100 nM
55 | FC(F)(F)COCc1nnc2n1Cc1c(C3=NCCO3)ncn1-c1ccc(Cl)cc1-2 [Compound 309] | 100 to 1000 nM
56 | Cc1ccccc1C#Cc1ncn2c1Cn1c(COC(C)C)nnc1-c1cc(Cl)ccc1-2 [Compound 310] | < 100 nM
57 | CCOCc1nnc2n1Cc1c(C#Cc3ccccc3C)ncn1-c1ccc(Cl)cc1-2 [Compound 311] | < 100 nM
58 | Cc1coc(-c2ncn3c2Cn2c(COCC(F)(F)F)nnc2-c2cc(Cl)ccc2-3)n1 [Compound 312] | 100 to 1000 nM
59 | FC(F)(F)COCc1nnc2n1Cc1c(-c3nc(-c4ccccc4)co3)ncn1-c1ccc(Cl)cc1-2 [Compound 313] | < 100 nM
60 | COCc1nnc2n1Cc1c(-c3cnco3)ncn1-c1ccc(Cl)cc1-2 [Compound 314] | 100 to 1000 nM
61 | CC(C)OCc1nnc2n1Cc1c(C3=NCCO3)ncn1-c1ccc(Cl)cc1-2 [Compound 316] | 100 to 1000 nM
62 | CCOCc1nnc2n1Cc1c(C3=NCCO3)ncn1-c1ccc(Cl)cc1-2 [Compound 317] | < 100 nM
63 | CCOC(=O)c1ncn2c1Cc1c(C#Cc3ccccc3)nnn1-c1cc(OC)ccc1-2 [Compound 318] | 100 to 1000 nM
64 | COCc1nnc2n1Cc1c(C3=N[C@@H](c4ccccc4F)CO3)ncn1-c1ccc(Cl)cc1-2 [Compound 319] | < 100 nM
65 | COCc1nnc2n1Cc1c(C3=N[C@@H](c4ccc(F)cc4)CO3)ncn1-c1ccc(Cl)cc1-2 [Compound 320] | < 100 nM
66 | CC(C)OCc1nnc2n1Cc1c(C3=N[C@@H](c4ccccc4F)CO3)ncn1-c1ccc(Cl)cc1-2 [Compound 321] | 100 to 1000 nM
67 | CCOCc1nnc2n1Cc1c(C3=N[C@@H](c4ccccc4F)CO3)ncn1-c1ccc(Cl)cc1-2 [Compound 322] | < 100 nM
68 | COCc1nnc2n1Cc1c(-c3nc(-c4ccccc4F)co3)ncn1-c1ccc(Cl)cc1-2 [Compound 323] | < 100 nM
69 | COCc1nnc2n1Cc1c(-c3nc(-c4ccc(F)cc4)co3)ncn1-c1ccc(Cl)cc1-2 [Compound 324] | < 100 nM
70 | CCOCc1nnc2n1Cc1c(C3=N[C@@H](c4ccc(F)cc4)CO3)ncn1-c1ccc(Cl)cc1-2 [Compound 325] | < 100 nM
71 | CC(C)OCc1nnc2n1Cc1c(C3=N[C@@H](c4ccc(F)cc4)CO3)ncn1-c1ccc(Cl)cc1-2 [Compound 326] | < 100 nM
72 | CC(C)OCc1nnc2n1Cc1c(-c3ncco3)ncn1-c1ccc(Cl)cc1-2 [Compound 327] | < 100 nM
73 | C#Cc1ncn2c1Cn1c(COC)nnc1-c1cc(OC)ccc1-2 [Compound 328, 5-ethynyl-15-methoxy-9-(methoxymethyl)-2,4,8,10,11-pentaazatetracyclo[11.4.0.0^2,^6.0^8,^12]heptadeca-1(17),3,5,9,11,13,15-heptaene] | < 100 nM
74 | COCc1nnc2n1Cc1c(C3=N[C@@H](c4ccccc4C)CO3)ncn1-c1ccc(Cl)cc1-2 [Compound 330] | < 100 nM
75 | COCc1nnc2n1Cc1c(C3=N[C@@H](c4ccccc4OC)CO3)ncn1-c1ccc(Cl)cc1-2 [Compound 331] | < 100 nM
76 | COCc1nnc2n1Cc1c(C3=N[C@@H](c4ccc(OC)cc4)CO3)ncn1-c1ccc(Cl)cc1-2 [Compound 332] | < 100 nM
77 | COCc1nnc2n1Cc1c(C3=N[C@@H](c4cccc(OC)c4)CO3)ncn1-c1ccc(Cl)cc1-2 [Compound 333] | < 100 nM
